The record followed here is patent US7169789B2 (Kirin Beer Kabushiki Kaisha, priority 1999, dated 2007).

One may read the IC50 as the concentration that gives 50% inhibition. Low readings indicate higher potency, high ones lower potency.

In experiment [1] the test system is activation of MAPK within vascular endothelial cells induced by VEGF stimulation. Briefly: Inhibitory activity against activation of MAPK within vascular endothelial cells induced by VEGF stimulation. Format: cell-based. The note with it: human funicular venous vascular endothelial cells, VEGF 50 ng/ml, phosphorylated MAPK by immunoblotting. How it is done:
Measurement of Inhibitory Activity Against Activation of MAPK Within Vascular Endothelial Cells Induced by VEGF Stimulation
Human funicular venous vascular endothelial cells (purchased from Chronetics) were cultured in an EGM-2 medium (purchased from Chronetics) within an incubator containing 5% carbon dioxide until 50 to 70% confluent, and the culture was inoculated into wells, containing the same medium, in a 96-well flat-bottom plate in an amount of 1.5×10^5 per well. After cultivation at 37° C. overnight, the medium was replaced by an EBM-2 medium containing 0.5% fetal calf serum (purchased from Chronetics), followed by cultivation for 24 hr. A solution of the test compound in dimethyl sulfoxide was added to each well, and the cultivation was continued at 37° C. for additional one hr. A human recombinant vascular endothelial growth factor (hereinafter abbreviated to “VEGF”) was added to a final concentration of 50 ng/ml, and the stimulation of cells was carried out at 37° C. for 8 min. The medium was removed, the cells were washed with phosphate buffered saline (pH 7.4), and 10 μl of a solubilization buffer (Tris buffered saline (pH 7.4) containing 1% Triton X100, 2 mM sodium orthovanadylate, and 1 mM disodium ethylenediaminetetraacetate) was then added thereto. The mixture was shaken at 4° C. for one hr to solubilize the cells. An equal amount of Tris buffered saline containing 1% sodium laurylsulfate was added to and thoroughly mixed with the solution. This solution (2 μl) was adsorbed on a PVDF filter by dot blotting, and this filter was subjected to immunoblotting with anti-tyrosine phosphorylated MAPK antibody (purchased from Daiichi Pure Chemicals).
The level of phosphorylated MAPK was quantitatively determined with a densitometer, and the percentage phosphorylated MAPK in the presence of the test compound was determined by presuming the level of phosphorylated MAPK with the addition of VEGF in the absence of the test compound to be 100% and the level of phosphorylated MAPK in the absence of the test compound and VEGF to be 0%. The test compound concentration (IC50) necessary for inhibiting 50% of the activation of MAPK was calculated based on the percentage of phosphorylated MAPK.
In general terms: In western blotting, separated proteins are transferred to a membrane and probed.

For experiment [2], the target named is T1, human KDR (Homo sapiens, UniProt P35968).
T1 construct: expressed in transfected cells; host or cells: NIH 3T3 cells (Sawano A et al., Cell Growth & Differentiation 7, 213-221 (1996))
T1 sequence (P35968 20-1356): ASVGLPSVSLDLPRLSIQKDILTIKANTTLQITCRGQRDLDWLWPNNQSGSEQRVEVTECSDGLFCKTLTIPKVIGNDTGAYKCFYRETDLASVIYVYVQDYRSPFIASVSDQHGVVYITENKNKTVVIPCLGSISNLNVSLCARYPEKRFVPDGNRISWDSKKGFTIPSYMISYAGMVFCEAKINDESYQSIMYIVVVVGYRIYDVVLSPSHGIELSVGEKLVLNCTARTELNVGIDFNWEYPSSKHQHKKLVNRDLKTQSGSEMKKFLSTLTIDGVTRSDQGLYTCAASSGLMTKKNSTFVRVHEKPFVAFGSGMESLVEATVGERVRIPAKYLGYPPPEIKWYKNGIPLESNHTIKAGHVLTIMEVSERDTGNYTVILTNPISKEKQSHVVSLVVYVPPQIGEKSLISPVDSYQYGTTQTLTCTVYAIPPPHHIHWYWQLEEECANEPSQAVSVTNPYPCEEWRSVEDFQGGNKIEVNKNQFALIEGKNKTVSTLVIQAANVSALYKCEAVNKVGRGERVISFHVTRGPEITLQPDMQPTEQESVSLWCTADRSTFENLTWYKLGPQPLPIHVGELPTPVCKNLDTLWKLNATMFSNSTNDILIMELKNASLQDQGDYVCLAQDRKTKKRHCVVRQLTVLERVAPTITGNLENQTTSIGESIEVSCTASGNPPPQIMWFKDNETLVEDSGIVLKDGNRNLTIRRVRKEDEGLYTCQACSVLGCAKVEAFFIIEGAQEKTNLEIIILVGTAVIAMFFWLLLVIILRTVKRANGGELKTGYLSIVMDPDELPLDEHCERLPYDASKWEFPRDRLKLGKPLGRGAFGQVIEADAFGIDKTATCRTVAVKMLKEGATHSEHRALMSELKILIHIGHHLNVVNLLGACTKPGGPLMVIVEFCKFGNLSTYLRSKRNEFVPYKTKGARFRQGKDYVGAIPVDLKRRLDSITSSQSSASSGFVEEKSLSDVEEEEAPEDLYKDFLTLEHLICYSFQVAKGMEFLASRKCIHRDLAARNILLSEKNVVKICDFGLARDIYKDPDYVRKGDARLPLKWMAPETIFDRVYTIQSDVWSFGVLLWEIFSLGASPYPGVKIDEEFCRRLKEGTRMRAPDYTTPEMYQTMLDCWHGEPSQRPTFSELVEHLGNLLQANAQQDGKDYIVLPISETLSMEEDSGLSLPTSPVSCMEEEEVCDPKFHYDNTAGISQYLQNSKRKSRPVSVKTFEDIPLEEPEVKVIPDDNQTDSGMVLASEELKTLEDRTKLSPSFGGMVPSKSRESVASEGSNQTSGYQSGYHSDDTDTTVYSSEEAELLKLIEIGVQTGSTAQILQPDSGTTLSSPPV
Briefly: Inhibitory activity against KDR phosphorylation by ELISA. Type of experiment: cell-based. As to conditions: NIH 3T3 cells transfected with human KDR, VEGF 100 ng/ml. (In general: An ELISA detects its analyte on a solid surface through an enzyme-linked reagent.)

Experiment [3] deals with Human glioma cells GL07. Briefly: Antitumor effect on human glioma cells (GL07) transplanted into nude mice. Type of experiment: in vivo. The note with it: 20 mg/kg once a day for 9 days; for inhibition in vivo at 20 mg/kg: Mus musculus, Glioma cell, 216 h, read-out: TGIR, % (tumor growth inhibition rate). The essentials: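 GL07 xenografts in nude mice, grouped (n=4) at ~100 mm^3 tumor volume. Test compound 20 mg/kg p.o. or i.p. once daily for 9 days; vehicle controls. TGIR = (1−Tx/Cx)×100 from tumor volumes normalized to day-of-start volume = 1.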

Where two headings read alike, the source gives them in different places.

For `C#CCNC(=O)Nc1ccc(Oc2ncnc3cc(OC)c(OC)cc23)cc1F` [Example 92, N-{4-[(6,7-Dimethoxy-4-quinazolinyl)oxy]-2-fluorophenyl}-N′-(2-propynyl)urea], the IC50 amounted to 46 nM in experiment [1] (Endothelial cell) and 63 nM in experiment [2].
As to `COc1cc2ncnc(Oc3ccc(NC(=O)Nc4ccc(F)cc4)c(Cl)c3)c2cc1OC` [Example 85, N-{2-Chloro-4-[(6,7-dimethoxy-4-quinazolinyl)oxy]phenyl}-N′-(4-fluorophenyl)urea], the IC50 in experiment [1] (Endothelial cell) is 0.7 nM; in experiment [2], 0.5 nM. Moreover, the inhibition in vivo at 20 mg/kg in experiment [3] (GL07, oral) stood at 26%.
The corresponding values for `CCCCCNC(=O)Nc1ccc(Oc2ncnc3cc(OC)c(OC)cc23)cc1Cl` [Example 78, N-{2-Chloro-4-[(6,7-dimethoxy-4-quinazolinyl)oxy]phenyl}-N′-pentylurea] are 4.1 nM, 3.4 nM and 21%.
The corresponding values for `CCCNC(=O)Nc1ccc(Oc2ncnc3cc(OC)c(OC)cc23)cc1` [Example 64, N-{4-[(6,7-Dimethoxy-4-quinazolinyl)oxy]-phenyl}-N′-propylurea] are 42 nM, 150 nM and 37%.
Turning to `COc1cc2ncnc(Oc3ccc(NC(=O)Nc4ccccc4C)cc3)c2cc1OC` [Example 74, N-{4-[(6,7-Dimethoxy-4-quinazolinyl)oxy]-phenyl}-N′-(2-methylphenyl)urea], the IC50 in experiment [1] (Endothelial cell) is 6 nM; in experiment [2], 11 nM. Also, in experiment [3] (GL07, oral), the inhibition in vivo at 20 mg/kg was found to be 28%.
With `COc1ccccc1NC(=O)Nc1ccc(Oc2ncnc3cc(OC)c(OC)cc23)cc1F` [Example 96, N-{4-[(6,7-Dimethoxy-4-quinazolinyl)oxy]-2-fluorophenyl}-N′-(2-methoxyphenyl)urea], the IC50 in experiment [1] (Endothelial cell) was less than 1 nM; in experiment [2] it was 0.4 nM.
On to `COc1cc2c(Oc3ccc(NC(=O)Nc4ccc(F)cc4F)c(F)c3)ccnc2cc1OCCN1CCOCC1` [Example 50, N-(2,4-Difluorophenyl)-N′-(2-fluoro-4-{[6-methoxy-7-(2-morpholinoethoxy)-4-quinolyl]oxy}phenyl)-urea], for which 0.5 nM corresponded to half-maximal inhibition in experiment [1] (Endothelial cell) (IC50). Besides, the inhibition in vivo at 20 mg/kg in experiment [3] (GL07, oral) turned out to be 59%.
The corresponding values for `C=CCNC(=O)Nc1ccc(Oc2ccnc3cc(OC)c(OC)cc23)cc1F` [Example 4, N-Allyl-N′-{4-[(6,7-dimethoxy-4-quinolyl)-oxy]-2-fluorophenyl}urea] are 2.1 nM and 61%.
As to `CCCCCNC(=O)Nc1ccc(Oc2ncnc3cc(OC)c(OC)cc23)cc1` [Example 66, N-{4-[(6,7-Dimethoxy-4-quinazolinyl)oxy]-phenyl}-N′-pentylurea], the IC50 in experiment [1] (Endothelial cell) turned out to be 21 nM; in experiment [2], 15 nM. Also, the inhibition in vivo at 20 mg/kg in experiment [3] (GL07, oral) came out at 26%.
The corresponding values for `COc1cc2ncnc(Oc3ccc(NC(=O)Nc4ccc(F)cc4F)c(C)c3)c2cc1OC` [Example 104, N-(2,4-Difluorophenyl)-N′-{4-[(6,7-dimethoxy-4-quinazolinyl)oxy]-2-methylphenyl}urea] are 5.3 nM, 3.9 nM and 22%.
As to `CCCCNC(=O)Nc1ccc(Oc2ccnc3cc(OC)c(OC)cc23)cc1F` [Example 9, N-Butyl N′-{4-[(6,7-dimethoxy-4-quinolyl)oxy]-2-fluorophenyl}urea], half-maximal inhibition in experiment [1] (Endothelial cell) (IC50) was put at 5.1 nM. Besides, the inhibition in vivo at 20 mg/kg in experiment [3] (ip, GL07, intraperitoneal) stood at 59%.
With `COc1cc2ncnc(Oc3ccc(NC(=O)Nc4ccc(Cl)cn4)c(Cl)c3)c2cc1OC` [Example 87, N-{2-Chloro-4-[(6,7-dimethoxy-4-quinazolinyl)oxy]phenyl}-N′-(5-chloro-2-pyridyl)urea], the half-inhibitory concentration (IC50) is 58 nM in experiment [1] (Endothelial cell) and 110 nM in experiment [2].
As to `COc1ccccc1NC(=O)Nc1ccc(Oc2ncnc3cc(OC)c(OC)cc23)cc1C` [Example 106, N-{4-[(6,7-Dimethoxy-4-quinazolinyl)oxy]-2-methylphenyl}-N′-(2-methoxyphenyl)urea], the results for the concentration for half-maximal inhibition (IC50) in experiment [1] (Endothelial cell) and in experiment [2] were less than 1 nM and 1.5 nM, respectively.
For `C#CCNC(=O)Nc1ccc(Oc2ncnc3cc(OC)c(OC)cc23)cc1` [Example 69, N-{4-[(6,7-Dimethoxy-4-quinazolinyl)-oxy]phenyl}-N′-(2-propynyl)urea], the IC50 turned out to be 67 nM in experiment [1] (Endothelial cell) and 64 nM in experiment [2]. The inhibition in vivo at 20 mg/kg in experiment [3] (GL07, oral) came out at 26%.
The corresponding values for `COc1cc2ncnc(Oc3ccc(NC(=O)Nc4ccc(F)cc4)c(C)c3)c2cc1OC` [Example 105, N-{4-[(6,7-Dimethoxy-4-quinazolinyl)oxy]-2-methylphenyl}-N′-(4-fluorophenyl)urea] are 2.3 nM, 2 nM and 20%.
`COc1cc2ncnc(Oc3ccc(NC(=O)Nc4ccc(F)cc4)cc3)c2cc1OC` [Example 73, N-{4-[(6,7-Dimethoxy-4-quinazolinyl)oxy]-phenyl}-N′-(4-fluorophenyl)urea]: the IC50 in experiment [1] (Endothelial cell) is less than 2 nM; in experiment [2], 1 nM. Moreover, the inhibition in vivo at 20 mg/kg in experiment [3] (GL07, oral) was found to be 34%.
The corresponding values for `COc1cc2ncnc(Oc3ccc(NC(=O)NCc4ccc(F)cc4F)c(Cl)c3)c2cc1OC` [Example 82, N-{2-Chloro-4-[(6,7-dimethoxy-4-quinazolinyl)oxy]phenyl}-N′-(2,4-difluorobenzyl)urea] are 3.8 nM, 8.4 nM and 27%.
With `CCNC(=O)Nc1ccc(Oc2ncnc3cc(OC)c(OC)cc23)cc1Cl` [Example 76, N-{2-chloro-4-[(6,7-dimethoxy-4-quinazolinyl)-oxy]phenyl}-N′-ethylurea], the IC50 in experiment [1] (Endothelial cell) stood at 8 nM; in experiment [2] it was 3.5 nM.
The corresponding values for `COc1ccccc1NC(=O)Nc1ccc(Oc2ncnc3cc(OC)c(OC)cc23)cc1Cl` [Example 86, N-{2-Chloro-4-[(6,7-dimethoxy-4-quinazolinyl)oxy]phenyl}-N′-(2-methoxyphenyl)urea] are 0.6 nM and 1.5 nM.
In the case of `COc1cc2ncnc(Oc3ccc(NC(=O)Nc4ccccc4C)c(F)c3)c2cc1OC` [Example 95, N-{4-[(6,7-Dimethoxy-4-quinazolinyl)oxy]-2-fluorophenyl}-N′-(2-methylphenyl)urea], the half-inhibitory concentration (IC50) in experiment [1] (Endothelial cell) worked out at 2.7 nM; in experiment [2] it was 3.8 nM.
The corresponding values for `COc1ccccc1NC(=O)Nc1ccc(Oc2ncnc3cc(OC)c(OC)cc23)cc1` [Example 75, N-{4-[(6,7-Dimethoxy-4-quinazolinyl)oxy]-phenyl}-N′-(2-methoxyphenyl)urea] are 1.2 nM and 1.4 nM.
For the compound `CCCNC(=O)Nc1ccc(Oc2ccnc3cc(OC)c(OC)cc23)cc1F` [Example 5, N-{4-[(6,7-Dimethoxy-4-guinolyl)oxy]-2-fluorophenyl}-N′-propylurea], the IC50 in experiment [1] worked out at 2.9 nM. In experiment [3] (GL07, oral), the “TGIR, % (tumor growth inhibition rate)” value was 59%.
Consider `CCNC(=O)Nc1ccc(Oc2ncnc3cc(OC)c(OC)cc23)cc1` [Example 63, N-{4-[(6,7-Dimethoxy-4-quinazolinyl)oxy]-phenyl}-N′-ethylurea], for which the IC50 in experiment [1] (Endothelial cell) came to 70 nM; in experiment [2], 150 nM.
In the case of `COc1cc2ncnc(Oc3ccc(NC(=O)NCc4ccc(F)cc4F)cc3)c2cc1OC` [Example 70, N-(2,4-Difluorobenzyl)-N′-{4-[(6,7-dimethoxy-4-quinazolinyl)oxy]phenyl}urea], the IC50 amounted to 6.8 nM in experiment [1] (Endothelial cell) and 32 nM in experiment [2].
Turning to `COCCOc1cc2nccc(Oc3ccc(NC(=O)Nc4ccc(F)cc4F)c(Cl)c3)c2cc1OC` [Example 54, N-(2-Chloro-4-{[6-methoxy-7-(2-methoxyethoxy)-4-quinolyl]oxy}phenyl)-N′-(2,4-difluorophenyl)urea], the IC50 in experiment [1] (Endothelial cell) was 0.5 nM. In addition, the inhibition in vivo at 20 mg/kg in experiment [3] (GL07, oral) was found to be 59%.
Take `CCC(C)NC(=O)Nc1ccc(Oc2ncnc3cc(OC)c(OC)cc23)cc1F` (centres unmarked) [Example 90, N-(sec-Butyl)-N′-{4-[(6,7-dimethoxy-4-quinazolinyl)oxy]-2-fluorophenyl}urea]: the IC50 stood at 42 nM in experiment [1] (Endothelial cell) and 57 nM in experiment [2].
